Laboratory results published in US11672787B2, “Compounds as mPGES-1 inhibitors” (Khondrion IP B.V., priority 2017, dated 2023).
Where a name gives a salt, the structure may show the parent alone.

Columns and labels:
mPGES-1 = biological target: T1, mPGES-1 (Mus musculus, UniProt Q9JM51); experiment: Microsomal PGES activity: conversion of PGH2 to PGE2 by microsomal fractions of LPS-treated RAW 264.7 cells; format: biochemical, murine; settings: for IC50: microsomal fraction of RAW 264.7 cells treated 24 hours with LPS 1 μg/mL, conversion of PGH2 to PGE2, read-out: IC50 (inhibition of mPGES-1 enzyme activity); for mPGES-1 activity in purified microsomes: 30 minutes
T1 construct: endogenous in cells; host or cells: RAW 264.7 cells treated 24 h with 1 ug/mL LPS; 100,000 g microsomal pellet
T1 sequence (Q9JM51 1-153): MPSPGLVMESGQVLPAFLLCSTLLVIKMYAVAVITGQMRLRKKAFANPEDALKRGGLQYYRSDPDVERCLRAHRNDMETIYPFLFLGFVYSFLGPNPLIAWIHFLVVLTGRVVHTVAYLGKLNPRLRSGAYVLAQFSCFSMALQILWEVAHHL
Experimental: FIG. 6. mPGES-1 activity was assayed as conversion of PGH2 to PGE2 by microsomal fractions of RAW 264.7 cells treated for 24 hours with LPS 1 μg/mL to increase mPGES-1 expression. The microsomal fraction was exposed to increasing concentrations of compound to be tested, or 3 μM of know mPGES-1 inhibitors MK866 or PF9184 as positive controls. PGE2 level was normalized on the vehicle treated microsomal samples (100%). (A) compound I-IVb-X; (B) compound I-IVb-AE; (C) compound I-IVb-A-HCl; (D) compound I-IVb-I.
PGES activity was measured by assessment of the conversion of PGH2 to PGE2. In brief, after 24 hours incubation with 1 μg/mL LPS the cells were harvested and lysed by sonication (three times for 10 seconds each, at 1 min intervals) in 300 μl of 1 M Tris-HCl (pH 8.0). After centrifugation of the lysate at 12,000 g for 10 min at 4° C., the supernatant was collected and further centrifuged at 100,000 g for 1 h at 4° C. The pellets (microsomal membranes) were resuspended in 100 μl of 0.1M Tris-HCl, pH 8.0, containing protease inhibitors) and subjected to measurement of microsomal PGES activity. For measurement of PGES activity, an aliquot of each sample equivalent to 50 μg of protein was incubated with 2 μg of PGH2 for 60 s at 24° C. in 0.1 ml of 1 M Tris-HCl containing 2 mM glutathione (Sigma-Aldrich) and 14 μM indomethacin, in the absence or presence of the tested compounds. The reaction was terminated by the addition of 100 mM FeCl2, and further incubated at 20-25° C. for 15 min. After centrifugation of the reaction mixture, the PGE2 concentration in the supernatant was measured with the PGE2 high sensitivity EIA kit (Enzo Life Science) according to manufacturer's instructions.
RAW 264.7 macrophage cells were treated with the inflammatory stimulus LPS to increase the expression of mPGES-1. After 24 hours incubation the microsomes were isolated and exposed to increasing concentration of compound I-IVb-X or a single concentration of previously described mPGES-1 inhibitors MK866 and PF9184 for 30 minutes. The activity of mPGES-1 was then assayed in the microsomes fraction as the conversion of PGH2 to PGE2.
Using the methods as described in Example 1, additional compounds were tested. Table 1 provides an overview of the compounds that were tested, along with corresponding IC50 values. FIGS. 6B, 6C, and 6D show corresponding inhibition curves for I-IVb-AE, I-IVb-A-HCl, and I-IVb-I, respectively.

[1] = test system: RAW 264.7 murine macrophage cells; experiment: Prostaglandin levels (ELISA) in supernatant of LPS-stimulated RAW 264.7 cells; format: cell-based; settings: 1 μg/mL LPS, 24 hours, increasing concentrations
Experimental: FIG. 2. (A-C) Levels of prostaglandins (PG) PGE2 (A), PGD2 (B) and 6-keto PGF1a (C) in supernatant of RAW 264.7 murine macrophage cells exposed for 24 hours to vehicle or 1 μg/mL lipopolysaccharide (LPS), normalized on vehicle. (D-F) Levels of PGE2, PGD2 and 6-keto PGF1a in supernatant of RAW 264.7 murine macrophage cells exposed for 24 hours to vehicle or 1 μg/mL LPS, alone (set as 100%) or in combination with increasing concentrations of compound I-IVb-X (a compound of general structure (I) wherein T is of general structure (IVb), in the S,R-configuration, and wherein as per compound X the following apply: L=L^19; R^1═H; R^2—R^2′=L^3; R^3═H; indicated as KH) (D), non-selective COX inhibitor indomethacin (E) or COX-2 inhibitor celecoxib (F).
RAW264.7 cells (Sigma-Aldrich, St-Louis) were maintained in DMEM (Thermo Fisher Scientific) containing 10% FBS (Greiner Bio-one), and antibiotics (100 U/ml penicillin, 100 μg/ml streptomycin) under a humidified atmosphere of 5% CO2 at 37° C. The cells were grown to 80% confluence, scraped and then cultured in either 96-well plates (2×10^4 cells/well) or six-well plates (4×10^5 cells/well) for 6-24 hours before an experiment.
The concentration of the PGE2, PGD2 and 6-keto-PGF1α in culture medium was determined by Enzyme-Linked Immuno Sorbent Assay (ELISA) using, respectively, the PGE2 high sensitivity EIA kit (Enzo Life Science), the Prostaglandin D2-MOX ELISA Kit (Cayman Chemicals) and the 6-keto Prostaglandin F1α ELISA Kit (Cayman Chemicals), according to the manufacturer's instructions. Samples (100 μl) of culture medium from each well were harvested and diluted with the assay buffer.
RAW 264.7 macrophage cells were treated with the inflammatory stimulus LPS alone or in combination with increasing concentrations of compound I-IVb-X (a compound of general structure (I) wherein T is of general structure (IVb), in the S,R-configuration, and wherein as per compound X the following apply: L=L^19; R^1═H; R^2—R^2′=L^3; R^3═H), the NSAID indomethacin or the Coxib Celecoxib. After 24 hours incubation the levels of PGE2, PGD2 and 6-keto PGF1a were quantified in the cell supernatant by ELISA. […] Similar results were obtained with compound I-IVb-X in human primary skin fibroblasts.

[2] = test system: human primary skin fibroblasts; experiment: Prostaglandin levels (ELISA) in supernatant of LPS- or IL-1β-stimulated human primary skin fibroblasts; format: cell-based; settings: 24 hours
Experimental: FIG. 3. (A-B) Levels of PGE2 (A) and PGD2 (B) in supernatant of human primary skin fibroblasts exposed for 24 hours to vehicle, 1 μg/mL LPS or 1 μg/mL Interleukin-1β (IL-1β), normalized on vehicle. (C-D) Levels of PGE2 and PGD2 in supernatant of human primary skin fibroblasts exposed for 24 hours to 1 μg/mL LPS (C) or 1 μg/mL IL-1β (D) alone (set as 100%) or in combination with increasing concentrations of compound I-IVb-X (indicated as KH).
The cells were maintained in M199, HEPES (Thermo Fischer Scientific) containing 10% FBS (#758093, Greiner Bio-one), 100 IU/ml penicillin and 100 μg/ml streptomycin (#30-002-CI, Corning) under a humidified atmosphere of 5% CO2 at 37° C. The cells were passaged by trypsinization every 4-5 days until they reached the passage number 20, and then discarded. The cells were grown to 80% confluence, trypsinized and then cultured in 96-well plates (4×10^3 cells/well) 24 hours before an experiment.
The concentration of the PGE2, PGD2 and 6-keto-PGF1α in culture medium was determined by Enzyme-Linked Immuno Sorbent Assay (ELISA) using, respectively, the PGE2 high sensitivity EIA kit (Enzo Life Science), the Prostaglandin D2-MOX ELISA Kit (Cayman Chemicals) and the 6-keto Prostaglandin F1α ELISA Kit (Cayman Chemicals), according to the manufacturer's instructions. […]

[3] = single concentration (3 μM), positive controls

CC1=C(C)C(=O)C(CC[C@](C)(O)C(=O)N2CCC(NC(=O)[C@H](C)N)CC2)=C(C)C1=O [I-IVb-AB-HCl]
IC50 (mPGES-1): 238 nM

CC1=C(C)C(=O)C(CC[C@](C)(O)C(=O)Nc2ccc(CN)cc2)=C(C)C1=O [I-IVb-AJ-HCl]
IC50 (mPGES-1): 1050 nM

CC1=C(C)C(=O)C(CC[C@](C)(O)C(=O)N[C@H]2CC[C@H](N)CC2)=C(C)C1=O [I-IVb-AE]
IC50 (mPGES-1): 18 nM

COc1ccc2c(c1)c(CC(=O)O)c(C)n2C(=O)c1ccc(Cl)cc1 [indomethacin, reference compound]
level of 6-keto PGF1a in cell supernatant [1]: dose-dependently reduced
level of PGD2 in cell supernatant [1]: dose-dependently reduced
level of PGE2 in cell supernatant [1]: dose-dependently reduced

O=C(Nc1ccc(-c2ccc(Cl)c(Cl)c2)cc1)C1=C(O)c2ccccc2S(=O)(=O)N1 [PF9184, reference compound]
mPGES-1 activity in purified microsomes (mPGES-1; [3]): decreased

CC1=C(C)C(=O)C(CC[C@](C)(O)C(=O)N[C@H]2CN3CCC2CC3)=C(C)C1=O [I-IVb-AI-HCl]
IC50 (mPGES-1): 726 nM

CC(C)c1ccc2c(c1)c(SC(C)(C)C)c(CC(C)(C)C(=O)O)n2Cc1ccc(Cl)cc1 [MK866, reference compound]
mPGES-1 activity in purified microsomes (mPGES-1; [3]): decreased

CC1=C(C)C(=O)C(CC[C@](C)(O)C(=O)N[C@@H]2CCCNC2)=C(C)C1=O [I-IVb-X]
level of 6-keto PGF1a in cell supernatant [1]: no effect
level of PGD2 in cell supernatant [1]: no effect
level of PGE2 in cell supernatant [1]: dose-dependently reduce
level of PGE2 in supernatant ([2]; 1 μg/mL IL-1β): efficiently reduce
level of PGE2 in supernatant ([2]; 1 μg/mL LPS): efficiently reduce
mPGES-1 activity in purified microsomes (mPGES-1; increasing concentration of compound): decreased
IC50 (mPGES-1): 458 nM

CC1=C(C)C(=O)C(CC[C@](C)(O)C(=O)N2CCNCC2)=C(C)C1=O [I-IVb-A-HCl]
IC50 (mPGES-1): 1020 nM

CC1=C(C)C(=O)C(CCC(C)(O)C(=O)N[C@@H](CCCN)C(=O)O)=C(C)C1=O (stereo partly shown) [I-IVb-N]
IC50 (mPGES-1): 10.4 nM

CC1=C(C)C(=O)C(CCC(C)(O)C(=O)NCCN(C)C)=C(C)C1=O (stereo not shown) [I-IVb-I]
IC50 (mPGES-1): 1120 nM
